The target in one experiment is T1, TDP1 (Homo sapiens, UniProt Q9NUW8). Nature of the experiment: TDP1 Lineweaver–Burk analysis. It counts as biochemical.
T1 sequence (Q9NUW8 whole entry): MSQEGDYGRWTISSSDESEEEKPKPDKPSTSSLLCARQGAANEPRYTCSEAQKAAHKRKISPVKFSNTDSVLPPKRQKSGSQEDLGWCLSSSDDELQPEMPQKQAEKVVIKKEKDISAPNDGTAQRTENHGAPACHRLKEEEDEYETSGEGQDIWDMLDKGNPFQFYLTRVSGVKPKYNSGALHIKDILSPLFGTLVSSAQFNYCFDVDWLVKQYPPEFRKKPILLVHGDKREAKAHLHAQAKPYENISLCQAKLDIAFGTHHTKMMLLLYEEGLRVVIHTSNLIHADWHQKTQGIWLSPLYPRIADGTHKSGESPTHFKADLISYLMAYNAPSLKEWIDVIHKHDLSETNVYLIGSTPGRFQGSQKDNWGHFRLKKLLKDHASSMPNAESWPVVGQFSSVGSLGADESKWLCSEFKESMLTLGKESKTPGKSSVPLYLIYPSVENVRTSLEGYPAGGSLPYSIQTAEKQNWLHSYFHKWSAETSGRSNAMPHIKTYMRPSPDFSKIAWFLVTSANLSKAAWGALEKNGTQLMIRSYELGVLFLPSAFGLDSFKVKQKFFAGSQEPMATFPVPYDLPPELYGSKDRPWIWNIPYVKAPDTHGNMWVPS
Conditions: not given
As for `O=C(O)c1ccc(Nc2c(-c3ccccc3)nc3ccccn23)cc1C(=O)O` [Compound 10b, 4-((2-Phenylimidazo[1,2-a]pyridin-3-yl)amino)phthalic acid], the mode of inhibition result is listed as “competitive”.

Regarding `O=C(O)c1ccc(Nc2c(-c3ccccc3)nc3ccccn23)cc1` [Compound 8a, 4-((2-Phenylimidazo[1,2-a]pyridin-3-yl)amino)benzoic acid], the mode of inhibition result is “competitive”. Turning to `O=C(O)c1ccc(Nc2c(-c3ccccc3)nc3cnccn23)cc1` [Compound 7b, 4-((2-Phenylimidazo[1,2-a]pyrazin-3-yl)amino)benzoic acid], the mode of inhibition entry is given as “competitive”. The same measure, in the same setting: the entry for `O=C(O)c1ccc(Nc2c(-c3ccccc3)nc3cnccn23)cc1C(=O)O` [Compound 10a, 4-((2-Phenylimidazo[1,2-a]pyrazin-3-yl)amino)phthalic acid] is “competitive”.

A further experiment deals with T1, TDP1. Nature of the experiment: TDP1 gel-based in vitro assay. It counts as biochemical. To be noted: Table 1 and main text.
What is called IC50 is the concentration that inhibits the measured activity by half. High values mean a need for much substance, low ones inhibition by little substance. On to `O=C(O)c1ccc(Nc2c(-c3ccc(C(=O)O)cc3)nc3ccccn23)cc1` [Compound 8h, 4-(3-((4-Carboxyphenyl)amino)imidazo[1,2-a]pyridin-2-yl)benzoic acid], for which the IC50 is over 100 µM. Turning to `O=C(O)c1ccc(Cn2c(-c3ccccc3)nc3ccccc32)cc1` [Compound 9a, 4-((2-Phenyl-1H-benzo[d]imidazol-1-yl)methyl)benzoic acid], the IC50 is over 100 µM.

`CS(=O)(=O)c1ccc2nc(-c3ccc(-c4ccccc4)cc3)c(Nc3ccc(C(=O)O)cc3)n2c1` [Compound 8r, 4-((2-([1,1'-Biphenyl]-4-yl)-6-(methylsulfonyl)imidazo[1,2-a]pyridin-3-yl)amino)benzoic acid] displayed an IC50 of 9.95 µM.

The compound `O=C(O)c1ccc(Cn2c(-c3ccccc3)cc3ccccc32)cc1` [Compound 9b, 4-((2-Phenyl-1H-indol-1-yl)methyl)benzoic acid] gave an IC50 of over 100 µM. Still for that read-out and setting: the figure for `CS(=O)(=O)c1ccc2nc(-c3ccccc3)c(Nc3ccc(C(=O)O)cc3)n2c1` [Compound 8q, 4-((6-(Methylsulfonyl)-2-phenylimidazo[1,2-a]pyridin-3-yl)amino)benzoic acid] is 1.8 µM; for `O=C(O)c1ccc(Nc2c(-c3ccc(O)cc3)nc3ccccn23)cc1` [Compound 8f, 4-((2-(4-Hydroxyphenyl)imidazo[1,2-a]pyridin-3-yl)amino)benzoic acid] it is over 100 µM. The compound `c1ccc(Nc2c(-c3ccccc3)nc3ccccn23)cc1` [Compound 6t, N,2-Diphenylimidazo[1,2-a]pyridin-3-amine] registered an IC50 of over 100 µM.

Source of the values: article PMC8179437 (Chemical Science, 2021).
